Read-outs that look alike come from different tables or passages of the source.
Molecular target: T1, Angiotensin II-receptor (Rattus norvegicus, UniProt P25095)
T1 construct: The tissue (rats lung) is homogenised in Tris-buffer; from tissue; host or cells: rat lung homogenate (washed 20,000x g pellet)
T1 sequence (P25095 1-359): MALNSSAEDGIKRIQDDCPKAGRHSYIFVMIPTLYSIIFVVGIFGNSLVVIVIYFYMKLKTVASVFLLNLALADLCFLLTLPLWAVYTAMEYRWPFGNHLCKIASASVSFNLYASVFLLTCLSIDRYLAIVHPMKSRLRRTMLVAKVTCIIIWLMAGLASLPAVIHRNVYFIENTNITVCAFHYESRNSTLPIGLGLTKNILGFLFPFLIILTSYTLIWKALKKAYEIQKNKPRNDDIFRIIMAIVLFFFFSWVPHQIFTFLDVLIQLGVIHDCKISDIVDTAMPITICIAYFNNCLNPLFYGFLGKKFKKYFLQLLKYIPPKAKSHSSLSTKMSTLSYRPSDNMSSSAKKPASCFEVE
Assay: Angiotensin II-receptor bonding
Type: binding
Protocol: Description of method: Angiotensin II-receptor bonding
The tissue (rats lung) is homogenised in Tris-buffer (50 mMol Tris, 150 mMol NaCl, 5 mMol EDTA, pH 7.40) and centrifuged twice for 20 minutes at 20,000x g. The finished pellets are resuspended in incubating buffer (50 mMol Tris, 5 mMol MgCl2, 0.2% BSA, pH 7.40) 1:75, based on the moist weight of the tissue. Each 0.1 ml of homogenate is incubated for 60 minutes at 37° C. with 50 pM [^125 I]-angiotensin II (NEN, Dreieich, FRG) with increasing concentrations of the test substance in a total volume of 0.25 ml. Incubation is ended by rapid filtration through glass fibre filter mats. The filters are each washed with 4 ml of ice cold buffer (25 mMol Tris, 2.5 mMol MgCl2, 0.1% BSA, pH 7.40). The bound radioactivity is measured using a gamma-counter. The corresponding IC50 value is obtained from the dose-activity curve.
In the test described, substances A to I show the following IC50 values: […]

[1] = rats lung homogenate, 50 pM [^125 I]-angiotensin II, 60 minutes at 37° C., pH 7.40, read-out: IC50

SMILES | IC50 [1] [nM] | IC50 [nM]
CCCCc1nc2c(C)cccc2c(=O)n1Cc1ccc(OC(C(=O)O)c2ccccc2)cc1 (stereo not drawn) [Substance E, 2-n-Butyl-8-methyl-3-[4-[(α-carboxy)benzyloxy]benzyl]-quinazolin-4-one-semihydrate] | 2000 | –
CCCCc1nc2ccc(N(C)C(=O)CC)cc2n1Cc1ccc(OC(CC(C)C)C(=O)O)cc1 (stereo not drawn) [Substance G, 2-n-Butyl-6-(N-propionyl-methylamino)-1-[4-[(1-carboxy-3-methyl)butyloxy]benzyl]benzimidazole] | 830 | –
CCCCc1nc2ccccc2n1Cc1ccc(NC(c2ccccc2)P(=O)(O)OCC)cc1 (stereo not drawn) [Substance I, 2-n-Butyl-1-[4-[α-(O-ethyl-phosphono)benzylamino]benzyl]benzimidazole] | – | 560
Cc1cc(OCc2ccc(OC(C(=O)O)c3ccccc3)cc2)c2ccccc2n1 (stereo not drawn) [Substance D, 2-Methyl-4-[4'-[(α-carboxy)benzyloxy]benzyloxy]quinoline] | 2000 | –

Further lines, with some results ahead:

IC50 [1] [nM] | SMILES | IC50 [nM]
12 | CCCc1nc2c(C)cc(-c3nc4ccccc4n3C)cc2n1Cc1ccc(OC(c2ccccc2)c2nnn[nH]2)cc1 (stereo not drawn) [Substance F, 2-n-Propyl-4-methyl-6-(1-methyl-benzimidazol-2-yl)-1-[4-[α-(1H-tetrazol-5-yl)benzyloxy]benzyl]benzimidazole] | –
27 | CCCCc1nc2cc(N3CCCN(Cc4ccccc4)C3=O)c(C)nc2n1Cc1ccc(OC(c2ccccc2)c2nnn[nH]2)cc1 (stereo not drawn) [Substance H, 2-n-Butyl-5-methyl-6-(3-benzyl-3,4,5,6-tetrahydro-2(1H)-pyrimidinon-1-yl)-3-[4-[α-(1H-tetrazol-5-yl)benzyloxy]benzyl]imidazo[4,5-b]pyridine] | –
76 | CCCc1nc2c(C)cccc2n1Cc1ccc(OC(C(=O)O)c2ccccc2)cc1 (stereo not drawn) [Substance A, 2-n-Propyl-4-methyl-1-[4-[(α-carboxy)benzyloxy]benzyl]benzimidazole] | –
4 | CCCc1nc2c(C)cc(-c3nc4ccccc4n3C)cc2n1Cc1ccc(OC(C(=O)O)c2ccccc2)cc1 (stereo not drawn) [Substance C, 2-n-Propyl-6-(1-methyl-benzimidazol-2-yl)-4-methyl-1-[4-[(α-carboxy)benzyloxy]benzyl]benzimidazole] | –
8 | CCCCc1nc2ccc(NC(=O)N(C)C)cc2n1Cc1ccc(OC(C(=O)O)c2ccccc2)cc1 (stereo not drawn) [Substance B, 2-n-Butyl-1-[4-[(α-carboxy)benzyloxy]benzyl]-6-dimethylaminocarbonylamino-benzimidazole] | –
